Legend:
Zinc finger protein GLI1 [1] = biological target: T1, Zinc finger protein GLI1 (Homo sapiens, UniProt P08151); test: Inhibition of GLI1 (unknown origin) transcriptional activity
T1 sequence (P08151 whole entry): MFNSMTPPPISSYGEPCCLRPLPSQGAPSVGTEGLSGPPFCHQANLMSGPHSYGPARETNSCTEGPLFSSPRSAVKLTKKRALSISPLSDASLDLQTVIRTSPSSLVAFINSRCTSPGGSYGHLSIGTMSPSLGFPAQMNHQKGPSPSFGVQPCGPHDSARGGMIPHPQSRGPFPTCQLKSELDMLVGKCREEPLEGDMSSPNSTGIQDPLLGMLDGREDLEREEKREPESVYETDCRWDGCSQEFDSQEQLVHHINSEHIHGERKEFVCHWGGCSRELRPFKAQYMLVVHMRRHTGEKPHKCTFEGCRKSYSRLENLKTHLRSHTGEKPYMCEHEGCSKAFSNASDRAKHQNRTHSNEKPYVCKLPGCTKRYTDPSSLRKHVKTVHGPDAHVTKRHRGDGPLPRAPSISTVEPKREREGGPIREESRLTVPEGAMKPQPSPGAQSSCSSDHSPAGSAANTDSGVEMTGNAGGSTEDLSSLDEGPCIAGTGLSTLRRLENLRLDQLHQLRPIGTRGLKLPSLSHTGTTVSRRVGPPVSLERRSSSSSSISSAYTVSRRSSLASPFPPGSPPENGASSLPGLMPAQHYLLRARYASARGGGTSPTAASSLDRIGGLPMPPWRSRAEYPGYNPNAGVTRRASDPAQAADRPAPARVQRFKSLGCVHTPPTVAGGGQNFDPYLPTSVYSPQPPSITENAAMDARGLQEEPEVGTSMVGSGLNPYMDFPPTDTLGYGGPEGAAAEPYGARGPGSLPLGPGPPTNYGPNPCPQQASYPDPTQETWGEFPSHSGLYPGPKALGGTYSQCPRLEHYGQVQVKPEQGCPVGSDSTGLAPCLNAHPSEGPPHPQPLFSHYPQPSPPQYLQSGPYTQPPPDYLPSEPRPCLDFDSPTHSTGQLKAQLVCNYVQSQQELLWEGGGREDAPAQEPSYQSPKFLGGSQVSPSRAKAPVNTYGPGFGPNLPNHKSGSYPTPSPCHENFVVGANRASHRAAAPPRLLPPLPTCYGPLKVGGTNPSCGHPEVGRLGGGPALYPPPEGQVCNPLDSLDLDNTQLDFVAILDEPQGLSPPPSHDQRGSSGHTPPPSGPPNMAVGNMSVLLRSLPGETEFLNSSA

Zinc finger protein GLI1 [2] = biological target: T1, Zinc finger protein GLI1; test: Inhibition of GLI1-mediated transcriptional activity in human HaCaT cells coexpressing luciferase

Compound	IC50 (Zinc finger protein GLI1 [1]) [µM]	IC50 (Zinc finger protein GLI1 [2]) [µM]
C[C@@]12C[C@H]3OC(=O)[C@@H]1CO[C@]14O[C@@]5([C@H]2C1=O)[C@@]3(C)OC(=O)[C@@]5(O)CC[C@H]1[C@H]4C[C@H]2O[C@]23CC=CC(=O)[C@]13C	0.7	–
C[C@]12C(=O)CC=CC1=CC[C@@H]1[C@@H]2CC[C@]2(O)C(=O)O[C@@]3(C)[C@H]4C[C@]5(C)[C@@H](CO[C@@]16O[C@@]32[C@H]5C6=O)C(=O)O4	4.2	–
O[C@H]1[C@H]2c3cc4c(cc3CN3CCC(=C[C@@H]1O)[C@H]23)OCO4 [9,10-(methylenedioxy)-3,12-didehydrogalanthan-1alpha,2beta-diol]	–	19
CO[C@H]1C=C[C@@]23c4cc5c(cc4CN(C[C@@H]2O)[C@H]3C1)OCO5 [CHEBI:3914]	–	4.7
C[C@]12C(=O)C=CCC1=CC[C@@H]1[C@@H]2CC[C@]2(O)C(=O)O[C@@]3(C)[C@H]4C[C@]5(C)[C@@H](CO[C@@]16O[C@@]32[C@H]5C6=O)C(=O)O4 [NSC-287088]	0.6	–

Source: BindingDB's records for PubMed 36332550 (Peking Union Medical College, 2022)
